Reference: patent US20080293758A1, “Combination of a Steroid Sulfatase Inhibitor and an Ascomycin” (Novartis AG, priority 2005, published 2008)
“And” between values parts separate entries of the source, which are not always exact repeats. Identical values can stand only once.

Key:
[1] = test system: irritant contact dermatitis elicited with tetradecanoylphorbol-13-acetate (TPA) on mouse ears; assay: Anti-Inflammatory Test System (TPA-elicited irritant contact dermatitis, auricular weights); type: in vivo, mice, strain NMRI; details: topical 10 μl, 6 hours after TPA
Description: The test sites on the inner surface of the right external ears of mice, e.g. strain NMRI, (8 per group) are treated with 10 μl of the dissolved test compound or with the vehicle (a 4:4:2 mixture of ethanol/acetone/dimethylacetamide) alone. The test compounds are applied alone or in combination at concentrations shown in the TEST RESULT TABLE. Thirty minutes after the treatment irritant contact dermatitis is elicitated at the treated auricular sites with 10 μl 0.005% tetradecanoylphorbol-13-acetate (TPA).
Skin inflammation is assessed 6 hours after the elicitation by determination of the auricular weights, as a measure of inflammatory swelling. The animals are killed and both ears are cut off and weighed. Inhibitory activity of test compounds is calculated from differences in right and left ears (internal controls) in mice treated with the test compounds compared with animals treated with the vehicle only. Results obtained are as set out in TEST RESULT TABLE below:
In the TEST RESULT TABLE the concentrations of the compounds (in bold) used are indicated in micromol/litre. The values given in the TEST RESULT TABLE (in regular letters) are the inhibition in % determined according to the ANTI-INFLAMMATORY TEST SYSTEM used.

[2] = target: T1, steroid sulfatase in human cadaver skin homogenate (Homo sapiens, UniProt P08842); assay: Assay Using Human Skin Homogenate (DHEAS cleavage); type: biochemical; details: 18 hrs at 37° C.
T1 construct: Frozen specimens of human cadaver skin (about 100 mg per sample) are minced into small pieces; from tissue; host or cells: human cadaver skin, minced and suspended in Tris buffer with 0.1% Triton X-100
T1 sequence (P08842 22-583): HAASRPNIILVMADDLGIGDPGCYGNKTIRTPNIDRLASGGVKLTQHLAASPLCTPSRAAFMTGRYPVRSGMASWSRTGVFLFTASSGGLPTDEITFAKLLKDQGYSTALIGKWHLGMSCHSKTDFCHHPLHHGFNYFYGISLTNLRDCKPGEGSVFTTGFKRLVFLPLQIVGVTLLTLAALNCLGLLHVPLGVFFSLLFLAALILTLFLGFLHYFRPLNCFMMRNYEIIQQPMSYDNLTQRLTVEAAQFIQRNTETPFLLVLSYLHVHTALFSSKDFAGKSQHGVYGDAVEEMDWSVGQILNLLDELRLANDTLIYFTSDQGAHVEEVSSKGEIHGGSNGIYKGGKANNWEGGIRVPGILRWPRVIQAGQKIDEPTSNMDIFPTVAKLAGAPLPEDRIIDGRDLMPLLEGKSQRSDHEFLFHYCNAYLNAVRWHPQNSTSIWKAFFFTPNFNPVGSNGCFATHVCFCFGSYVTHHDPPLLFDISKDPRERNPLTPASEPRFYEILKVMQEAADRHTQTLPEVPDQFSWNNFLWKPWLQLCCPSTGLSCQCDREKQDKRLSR
Description: Frozen specimens of human cadaver skin (about 100 mg per sample) are minced into small pieces (about 1×1 mm) using sharp scissors. The pieces obtained are suspended in ten volumes (w/w) of buffer (20 mM Tris-HCl, pH 7.5), containing 0.1% Triton X-100. Test compounds (e.g. compounds of the present invention) are added at graded concentrations from stock solutions in ethanol or DMSO. Second, DHEAS as the substrate is added ([…] [^3H]DHEAS, specific activity: about 60 Ci/mmol, and 20 μM unlabeled DHEAS). Samples are incubated for 18 hrs at 37° C. At the end of the incubation period, 50 μl of 1 M Tris, pH 10.4 and 3 ml of toluene are added. A 1-ml aliquot of the organic phase is removed and subjected to liquid scintillation counting. The determined dpm-values in the aliquots are converted to nmol of DHEA cleaved per g of skin per hour.

[3] = target: T2, purified human steroid sulfatase (Homo sapiens, UniProt P08842); assay: Assay of Human Steroid Sulfatase (4-methylumbelliferyl sulfate cleavage); type: biochemical; details: reference compound, determined in parallel
T2 construct: Human placenta is obtained freshly after delivery and stripped of membranes and connective tissues; from tissue; host or cells: human placenta (microsomes, Triton X-100 extract, hydroxy apatite / concanavalin A sepharose / blue sepharose chromatography)
T2 sequence (P08842 22-583): T1 sequence (P08842 22-583)
Description: For storage, the material is frozen at −70° C.
The activity is recovered in the flow-through.
Plates are incubated at 37° C. for 1 hour.
Relative IC50 values are defined as follows: […]

| Structure (SMILES) | IC50 [2] | also measured |
| --- | --- | --- |
| CC[C@@H]1/C=C(\C)C[C@H](C)C[C@H](OC)[C@H]2O[C@@](O)(C(=O)C(=O)N3CCCC[C@H]3C(=O)O[C@H](/C(C)=C/[C@@H]3CC[C@H](Cl)[C@H](OC)C3)[C@H](C)[C@@H](O)CC1=O)[C@H](C)C[C@@H]2OC [pimecrolimus, {[1E-(1R,3R,4S)]1R,9S,12S,13R,14S,17R,18E,21S,23S,24R,25S,27R}-12-[2-(4-chloro-3-methoxycyclohexyl)-1-methylvinyl]-17-ethyl-1,14-dihydroxy-23,25-dimethoxy-13,19,21,27-tetramethyl-11,28,dioxa-4-azatricyclo[22.3.1.0(4,9)]octacos-18-ene-2,3,10,16-tetraone] | – | inhibition in % ([1]; pimecrolimus 0.1, example 217 or 218 0 micromol/litre): 15%; inhibition in % ([1]; pimecrolimus 0.3, example 217 or 218 0 micromol/litre): 29%; inhibition in % ([1]; pimecrolimus 1.0, example 217 or 218 0 micromol/litre): 30%; inhibition in % ([1]; pimecrolimus 3.0, example 217 or 218 0 micromol/litre): 31%; inhibition in % ([1]; pimecrolimus 10, example 217 or 218 0 micromol/litre): 42% |
| NC(=O)c1ccc(C(F)(F)F)cc1N1CCC(CC(=O)NS(=O)(=O)c2cc(Cl)cc(Cl)c2)CC1 [Example 249] | 30 to 270 nM | – |
| Cc1c(Cl)cccc1S(=O)(=O)NC(=O)CC1CCN(c2cc(C(F)(F)F)ccc2C(N)=O)CC1 [Example 251] | 30 to 270 nM | – |
| C[C@]12CC[C@@H]3c4ccc(OS(N)(=O)=O)cc4CC[C@H]3[C@@H]1CCC2=O [estrone sulfamate, estrone 3-O-sulfamate] | – | IC50 [3]: ~60 nM |
| CC(C)(C)OC(=O)N1CC2CCCCC(C1)C2C(=O)NS(=O)(=O)c1cc(C(F)(F)F)cc(C(F)(F)F)c1 (centres unmarked) [Example 218] | 30 to 270 nM and 270 nM | – |
| CC(C)(C)OC(=O)N1CC2CCCCC(C1)C2C(=O)NS(=O)(=O)c1cc(C(F)(F)F)cc(C(F)(F)F)c1 (single isomer, unassigned) [Example 217, 10-(3,5-bis-trifluoromethyl-benzenesulfonylaminocarbonyl)-8-aza-bicyclo[4.3.1]decane-8-carboxylic acid tert-butyl ester] | 30 to 270 nM and 270 nM | – |
| NC(=O)c1ccc(C(F)(F)F)cc1N1CCC(CS(=O)(=O)NC(=O)c2cc(C(F)(F)F)cc(C(F)(F)F)c2)CC1 [Example 379] | 30 to 270 nM | melting point: 268 to 273 °C |
| O=C(NS(=O)(=O)c1cc(C(F)(F)F)cc(C(F)(F)F)c1)C1C2CCCCC1CN(C(=O)CC1CCCC1)C2 (centres unmarked) [Example 208] | 30 to 270 nM | – |
| NC(=O)c1ccc(C(F)(F)F)cc1N1CCC(CC(=O)NS(=O)(=O)c2cccc(Cl)c2Cl)CC1 [Example 248] | 30 to 270 nM | – |
